Laboratory results as given in patent publication US20130178441A1, “Methods for Extending Progression-Free Survival using 10-Propargyl-10-Deazaaminopterin” (ALLOS THERAPEUTICS, INC., priority 2010, published 2013).
“And” between values parts separate entries of the source, which are not always exact repeats. Equal values may be shown once. Marks after values point to notes of the source that are not given here.

Assays:
[1] = test system: relapsed/refractory PTCL; test: PROPEL subset analysis: patients previously treated with ICE-based regimens (N=20) vs other patients (n=89); type: in vivo, human
Description: The prognosis of aggressive PTCL is dismal. Investigators have developed salvage regimens attempting to improve outcomes for patients with relapsed or refractory disease. One such regimen frequently used is ifosfamide, carboplatin, and etoposide (ICE) or ICE-based regimens (eg, and rituximab-ICE [RICE] and dexamethasome-ICE [DICE]). These regimens can have response rates approaching 70% and patients may proceed to a stem cell transplant, yet most patients tend to relapse quickly (Horwitz et al Blood 2005; 106:a2679). Thus, optimal approaches for patients with relapsed or refractory disease are needed, and agents based on a unique mechanism of action warrant study. This analysis was conducted to determine if pralatrexate offered a beneficial treatment option for patients after treatment with an ICE/RICE/DICE regimen. Methods: Pralatrexate was administered via intravenous push over 3 to 5 minutes at 30 mg/m^2/week for six weeks in 7-week cycles with concurrent 1 mg vitamin B12 intramuscular every 8 to 10 weeks and folic acid 1.0 to 1.25 mg by mouth once daily. 109 patients were treated with pralatrexate in the PROPEL study. All patients in the PROPEL study had received at least 1 prior therapy for PTCL. A subset of 20 patients had received ICE, RICE or DICE at some point prior to treatment with pralatrexate. The efficacy in these patients was compared to the remainder of the patient population who had not received ICE/RICE/DICE as a therapy for PTCL prior to pralatrexate (n=89). The patient population that previously received an ICE-based regimen was heavily pretreated with am edian of 3 prior systemic regimens (range, 2-11). The median age was 45 years, a younger patient population compared with the overall PROPEL population (59 years).
ORR, duration of response, and progression-free survival (PFS) by independent central review and investigator assessment, and OS, are presented in Table 6. Details of the patients who responded to pralatrexate according to assessment by independent central review are provided in Table 7.

[2] = test system: relapsed or refractory PTCL; test: Progressive resistance analysis: PFS and response rate on pralatrexate vs previous lines of therapy (PDX-008, patients as their own control); type: in vivo, human; details: for Progression-free Survival Median: Kaplan-Meier
Method: Analysis of progressive resistance. The treatment immediately prior to entry into clinical trial PDX-008 provides data from a heterogeneous control group reflecting clinical practice with which to compare the efficacy of pralatrexate. This dataset has the benefit of being from the same patients as those receiving pralatrexate, and so avoids inter-subject variation.
Methodology: In order to explore this progressive resistance concept, retrospective analyses were performed looking at patients' response and PFS to prior therapies using patients as their own control. It was hypothesized that the response rates and PFS would be lower with each subsequent line of therapy (hypothesis #1). Analyses were conducted on those patients who received at least 3 prior therapies. PFS and response rate of third prior therapy (−3) were compared with those of the second prior therapy (−2), PFS and response rate of second prior therapy (−2) were compared with those last line of therapy (−1) prior to pralatrexate, and PFS and response rate of last line of therapy (−1) were compared with pralatrexate therapy for these patients. These analyses utilized investigator assessment of PFS, and response since central review of tumor assessments on prior therapies was not available.
Therefore, an analysis was conducted on all patients comparing PFS and response rate of last line of therapy with those of pralatrexate therapy.
For examining hypothesis #1, there were 57 patients (−3) who had undergone at least 3 prior therapies before entry into PDX-008. […] Examination of the pattern beyond 3 previous treatments would be progressively uninformative as fewer and fewer patients would be entered into the analysis. 1. See also FIG. 2.
There were 86 patients who had undergone at least 2 prior therapies before entry into PDX-008. This cohort included the 57 patients who received 3 or more previous treatments and 29 additional patients who received exactly 2 treatments prior to treatment with pralatrexate.
For examining hypothesis #2, PFS and response rate were compared following pralatrexate treatment with the treatment immediately prior to study entry for all 109 PTCL patients evaluated for efficacy in PDX-008. This cohort included the 86 patients who received 2 or more previous treatments and 23 patients who received only 1 treatment prior to pralatrexate.
Overview of Calculations: Time to progression of disease (PD) was calculated from the start date of the prior therapy administered to the date of progression+1 day.
PFS time was calculated as the number of days from start of prior treatment to the date of PD (date of PD−start date of prior treatment+1).
PFS time was calculated as the number of days from start of treatment to the date of PD or death, regardless of cause (date of PD or death−start date of pralatrexate treatment+1).
In addition, the PFS hazard ratio (HR), along with 95% confidence intervals (CIs), were estimated via the Cox regression model.
To assess the objective response rate (ORR) and PFS with each subsequent line of therapy and the effect of pralatrexate on ORR and PFS: In the first population group (n=57), i.e., group including patients with ≧3 prior systemic therapies, PFS and ORR of the third therapy prior to pralatrexate (−3) were compared with those of the second prior therapy (−2) to pralatrexate; PFS and ORR of the second prior therapy (2) were compared with those of the most recent line of therapy (−1) prior to pralatrexate; and PFS and ORR of the most recent line of therapy (−1) were compared with pralatrexate therapy for these patients.
In the second population group (n=86), i.e., group including patients with ≧2 prior systemic therapies, PFS and ORR of the second prior therapy (2) were compared with those of the most recent line of therapy (−1) prior to pralatrexate; and PFS and ORR of the most recent therapy (−1) were compared with pralatrexate therapy for these patients.

[3] = 20 patients with prior ICE/RICE/DICE
[4] = individual responders previously treated with ICE (N=8), central review, some values censored
[5] = of the 8 patients who did not respond to ICE as most recent therapy
[6] = prior ICE-based regimen, N=20, independent central review
[7] = prior ICE-based regimen, N=20, independent central review, Kaplan-Meier
[8] = prior ICE-based regimen, N=20, investigator assessment
[9] = prior ICE-based regimen, N=20, investigator assessment, Kaplan-Meier
[10] = all patients (≧1 prior therapy), N=109, investigator assessment
[11] = patients with ≧2 previous treatments, N=86, investigator assessment
[12] = patients with ≧3 previous treatments, N=57, investigator assessment

What does the source list for C#CCC(Cc1cnc2nc(N)nc(N)c2n1)c1ccc(C(=O)N[C@@H](CCC(=O)O)C(=O)O)cc1 (mixture of isomers) [Pralatrexate, (2S)-2-[[4-[(1RS)-1-[(2,4-diaminopteridin-6-yl)methyl]but-3-ynyl]benzoyl]amino]pentanedioic acid]?
CR/CRu based on investigators assessment [1, 3]: 25%; Complete responses [CR] by independent central review [1, 3]: 15%; ORR based on investigators assessment [1, 3]: 40%; Overall response rate (ORR) by independent central review [1, 3]: 40%; Median PFS in the 20 patients relative to that of the other patients ([1]; central review): over 3 times; Duration of Response (months) [1, 4]: 17.1^b months and 13.1 months and 10.1 months and 3.4 months and 1.6 months; PFS (months) [1, 4]: 14.4 months and 17.8 months and 4.8 months and 3.0 months; Duration of Response (months) ([1]; individual responders previously treated with ICE (N=8), central review, some values censored, listed as pralatrexate): 1.3 months and 4.9 months; CR to pralatrexate [1, 5]: 2 patients; PR to pralatrexate [1, 5]: 1 patients; Patients who responded to pralatrexate [1, 5]: 3 patients; Patients who responded to pralatrexate ([1]; of the 15 patients who did not have a response to a prior ICE-based regimen): 40%; Patients who proceeded to a stem cell transplant upon attaining a response to pralatrexate ([1]; of the 20 patients with prior ICE/RICE/DICE): Two; CR/CRu based on investigators assessment ([1]; other 89 patients): 17%; CR/CRu by independent central review ([1]; other 89 patients): 10%; Median PFS according to central review ([1]; other 89 patients): 3.3 months; Median duration of response by central review ([1]; other 89 patients): 9.4 months; Median duration of response per investigator assessment ([1]; other 89 patients): 6.8 months; ORR based on investigators assessment ([1]; other 89 patients): 39%; ORR by independent central review ([1]; other 89 patients (no prior ICE/RICE/DICE)): 27%; OS, Median, months (95% CI) ([1]; prior ICE-based regimen, N=20, Kaplan-Meier): 12.0 (5.2, 23.4) months; Duration of response, Range [1, 6]: 1.3-22.1 months; Tumor response: CR [1, 6]: 3 (15) n (%); Tumor response: ORR (CR + PR) [1, 6]: 8 (40) n (%); Tumor response: PD [1, 6]: 4 (20) n (%); Tumor response: PR [1, 6]: 5 (25) n (%); Tumor response: SD [1, 6]: 2 (10) n (%); Duration of response, Median, months (95% CI) [1, 7]: 13.1 months and 13.1 (3.4, NA) months; PFS, Median, months (95% CI) [1, 7]: 14.4 months and 14.4 (1.5, NA) months; Tumor response: CR [1, 8]: 5 (25) n (%); Tumor response: NA (not assessable) [1, 8]: 1 (5) n (%); Tumor response: ORR (CR + PR) [1, 8]: 8 (40) n (%); Tumor response: PD [1, 8]: 6 (30) n (%); Tumor response: PR [1, 8]: 3 (15) n (%); Tumor response: SD [1, 8]: 5 (25) n (%); Duration of response, Median, months (95% CI) [1, 9]: 16.2 months and 16.2 (3.4, NA) months; PFS, Median, months (95% CI) [1, 9]: 4.8 (2.5, 14.4) months; OS, Range ([1]; prior ICE-based regimen, N=20, survival follow up ended at two years): 1.1-24.0^d months; Response Rate [2, 10]: 39%; Progression-free Survival Median [2, 10]: 121.00 days; PFS Hazard Ratio, −1 vs pralatrexate ([2]; all patients, N=109, Cox regression, 95% CI): 1.051; Response Rate (ORR) [2, 11]: 40%; Progression-free Survival Median [2, 11]: 119.00 days; Progression-free Survival Median ([2]; patients with ≧2 previous treatments, N=86, investigator assessment, listed as pralatrexate): 119 days; Trend of decreased ORR and PFS with successive lines of therapy ([2]; patients with ≧3 or ≧2 previous treatments): reversed; Response Rate (ORR) [2, 12]: 40%; Progression-free Survival Median [2, 12]: 134.00 days; Progression-free Survival Median ([2]; patients with ≧3 previous treatments, N=57, investigator assessment, listed as pralatrexate): 134 days
